# Experimental data taken from patent US12240844B2 (Voronoi, Inc., priority 2019, dated 2025).
# Tests used:
# [1] = target: T1, ALK (Homo sapiens, UniProt Q9UM73); assay: scanMAX Kinase panel (DiscoverX), % control; assay type: binding; conditions: <35% = active
# T1 construct: purchased DiscoverX
# Protocol: (§1) Specifically, for Examples 162, 160, 105, 217, 205, 96, 207, 184, 206, 221, 238, and 237 selected among the example compounds of the present invention, it was decided to measure enzyme (kinase) selectivity by DiscoverX, and the experiment was conducted using a panel for scanMAX™ Kinase analysis. At this time, the concentration of the drug treated with the enzyme was 1 uM in DMSO, the control percentage (% control) was determined in the same way as in Equation 1 below, and the results were shown in Table 6 below. [formula] Here, the positive control refers to a compound showing a control percentage of 0%, and the negative control is DMSO, indicating a control percentage of 100%. Also, in the enzyme selectivity of the present invention, if the control percentage for each enzyme was <35% (i.e., less than 35%), it was determined to have activity against the relevant enzyme.
# [2] = target: T2, ALK (L1196M) (Homo sapiens, UniProt Q9UM73, L1196M); assay: scanMAX Kinase panel (DiscoverX), % control; assay type: binding; conditions: <35% = active
# T2 construct: purchased DiscoverX
# Protocol: as §1
# [3] = target: T3, CLK1 (Homo sapiens, UniProt P49759); assay: scanMAX Kinase panel (DiscoverX), % control; assay type: binding; conditions: <35% = active
# T3 construct: purchased DiscoverX
# Protocol: as §1
# [4] = target: T4, CLK3 (Homo sapiens, UniProt P49761); assay: scanMAX Kinase panel (DiscoverX), % control; assay type: binding; conditions: <35% = active
# T4 construct: purchased DiscoverX
# Protocol: as §1
# [5] = target: T5, CLK4 (Homo sapiens, UniProt Q9HAZ1); assay: scanMAX Kinase panel (DiscoverX), % control; assay type: binding; conditions: <35% = active
# T5 construct: purchased DiscoverX
# Protocol: as §1
# [6] = target: T6, DYRK1B (Homo sapiens, UniProt Q9Y463); assay: scanMAX Kinase panel (DiscoverX), % control; assay type: binding; conditions: <35% = active
# T6 construct: purchased DiscoverX
# Protocol: as §1
# [7] = target: LRRK2 (G2019S) (Homo sapiens, UniProt Q5S007, G2019S); assay: scanMAX Kinase panel (DiscoverX), % control; assay type: binding; set-up: purchased DiscoverX; conditions: <35% = active
# Protocol: as §1
# [8] = target: LRRK2 (Homo sapiens, UniProt Q5S007); assay: scanMAX Kinase panel (DiscoverX), % control; assay type: binding; set-up: purchased DiscoverX; conditions: <35% = active
# Protocol: as §1
# [9] = target: T7, TTK (Homo sapiens, UniProt P33981); assay: scanMAX Kinase panel (DiscoverX), % control; assay type: binding; set-up: purchased DiscoverX; conditions: <35% = active
# T7 sequence (P33981 1-857): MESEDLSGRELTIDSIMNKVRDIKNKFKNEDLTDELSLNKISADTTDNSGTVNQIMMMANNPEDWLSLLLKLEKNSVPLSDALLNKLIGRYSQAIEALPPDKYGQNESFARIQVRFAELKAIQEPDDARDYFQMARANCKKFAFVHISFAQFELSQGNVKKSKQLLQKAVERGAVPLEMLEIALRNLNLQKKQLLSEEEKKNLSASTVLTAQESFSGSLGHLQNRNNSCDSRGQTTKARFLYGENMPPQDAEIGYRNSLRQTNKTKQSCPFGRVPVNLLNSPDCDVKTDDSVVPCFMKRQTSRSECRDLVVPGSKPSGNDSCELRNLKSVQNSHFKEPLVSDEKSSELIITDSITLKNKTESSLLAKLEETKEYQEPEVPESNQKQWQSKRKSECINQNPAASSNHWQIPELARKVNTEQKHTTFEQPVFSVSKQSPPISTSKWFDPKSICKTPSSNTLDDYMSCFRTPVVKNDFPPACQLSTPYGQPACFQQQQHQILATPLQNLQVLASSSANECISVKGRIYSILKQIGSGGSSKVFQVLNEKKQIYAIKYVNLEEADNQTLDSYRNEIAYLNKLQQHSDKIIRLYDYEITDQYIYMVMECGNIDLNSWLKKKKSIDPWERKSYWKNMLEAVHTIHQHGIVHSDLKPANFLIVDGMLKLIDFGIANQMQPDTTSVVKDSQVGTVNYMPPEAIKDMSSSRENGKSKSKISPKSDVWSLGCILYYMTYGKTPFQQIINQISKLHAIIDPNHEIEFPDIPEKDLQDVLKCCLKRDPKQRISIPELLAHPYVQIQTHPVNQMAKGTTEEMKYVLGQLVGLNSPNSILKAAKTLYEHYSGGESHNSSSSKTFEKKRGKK
# Protocol: as §1
# [10] = test system: IL-6; assay: IL-6 secretion inhibition in LPS-treated THP-1 cells (ELISA); assay type: cell-based; conditions: Homo sapiens, compound 0.5 μM, LPS 500 ng/ml, 24 hours, read-out: THP1/IL6 (% inhib)
# Outline: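 Human monocytic THP-1 cells were pre-cultured 16 h at 37° C., then treated with compound at 0.5 μM final, followed by LPS at 500 ng/ml final. After 24 h, IL-6 and TNF-α in culture supernatant were quantified by ELISA with absorbance read at 450 nm.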
# [11] = target: T8, LRRK2, LRRK2 (G2019S), DYRK1, CLK1 and TTK kinases (Homo sapiens, UniProt Q13627); assay: Enzyme IC50 by Kinase HotSpot service (Reaction Biology Corporation), values marked with *; assay type: biochemical; conditions: DYRK1, ATP 10 uM
# T8 construct: other: DYRK1; Kinase HotSpot service (Reaction Biology), ATP 10 uM
# Outline: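 Radiometric-service kinase assays (Reaction Biology HotSpot protocol) run at 10 uM ATP under uniform conditions. Compounds tested as 3-fold dilution series from a top concentration of […] to give IC50.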
# Sequence of LRRK2 (G2019S) (Q5S007 whole entry G2019S): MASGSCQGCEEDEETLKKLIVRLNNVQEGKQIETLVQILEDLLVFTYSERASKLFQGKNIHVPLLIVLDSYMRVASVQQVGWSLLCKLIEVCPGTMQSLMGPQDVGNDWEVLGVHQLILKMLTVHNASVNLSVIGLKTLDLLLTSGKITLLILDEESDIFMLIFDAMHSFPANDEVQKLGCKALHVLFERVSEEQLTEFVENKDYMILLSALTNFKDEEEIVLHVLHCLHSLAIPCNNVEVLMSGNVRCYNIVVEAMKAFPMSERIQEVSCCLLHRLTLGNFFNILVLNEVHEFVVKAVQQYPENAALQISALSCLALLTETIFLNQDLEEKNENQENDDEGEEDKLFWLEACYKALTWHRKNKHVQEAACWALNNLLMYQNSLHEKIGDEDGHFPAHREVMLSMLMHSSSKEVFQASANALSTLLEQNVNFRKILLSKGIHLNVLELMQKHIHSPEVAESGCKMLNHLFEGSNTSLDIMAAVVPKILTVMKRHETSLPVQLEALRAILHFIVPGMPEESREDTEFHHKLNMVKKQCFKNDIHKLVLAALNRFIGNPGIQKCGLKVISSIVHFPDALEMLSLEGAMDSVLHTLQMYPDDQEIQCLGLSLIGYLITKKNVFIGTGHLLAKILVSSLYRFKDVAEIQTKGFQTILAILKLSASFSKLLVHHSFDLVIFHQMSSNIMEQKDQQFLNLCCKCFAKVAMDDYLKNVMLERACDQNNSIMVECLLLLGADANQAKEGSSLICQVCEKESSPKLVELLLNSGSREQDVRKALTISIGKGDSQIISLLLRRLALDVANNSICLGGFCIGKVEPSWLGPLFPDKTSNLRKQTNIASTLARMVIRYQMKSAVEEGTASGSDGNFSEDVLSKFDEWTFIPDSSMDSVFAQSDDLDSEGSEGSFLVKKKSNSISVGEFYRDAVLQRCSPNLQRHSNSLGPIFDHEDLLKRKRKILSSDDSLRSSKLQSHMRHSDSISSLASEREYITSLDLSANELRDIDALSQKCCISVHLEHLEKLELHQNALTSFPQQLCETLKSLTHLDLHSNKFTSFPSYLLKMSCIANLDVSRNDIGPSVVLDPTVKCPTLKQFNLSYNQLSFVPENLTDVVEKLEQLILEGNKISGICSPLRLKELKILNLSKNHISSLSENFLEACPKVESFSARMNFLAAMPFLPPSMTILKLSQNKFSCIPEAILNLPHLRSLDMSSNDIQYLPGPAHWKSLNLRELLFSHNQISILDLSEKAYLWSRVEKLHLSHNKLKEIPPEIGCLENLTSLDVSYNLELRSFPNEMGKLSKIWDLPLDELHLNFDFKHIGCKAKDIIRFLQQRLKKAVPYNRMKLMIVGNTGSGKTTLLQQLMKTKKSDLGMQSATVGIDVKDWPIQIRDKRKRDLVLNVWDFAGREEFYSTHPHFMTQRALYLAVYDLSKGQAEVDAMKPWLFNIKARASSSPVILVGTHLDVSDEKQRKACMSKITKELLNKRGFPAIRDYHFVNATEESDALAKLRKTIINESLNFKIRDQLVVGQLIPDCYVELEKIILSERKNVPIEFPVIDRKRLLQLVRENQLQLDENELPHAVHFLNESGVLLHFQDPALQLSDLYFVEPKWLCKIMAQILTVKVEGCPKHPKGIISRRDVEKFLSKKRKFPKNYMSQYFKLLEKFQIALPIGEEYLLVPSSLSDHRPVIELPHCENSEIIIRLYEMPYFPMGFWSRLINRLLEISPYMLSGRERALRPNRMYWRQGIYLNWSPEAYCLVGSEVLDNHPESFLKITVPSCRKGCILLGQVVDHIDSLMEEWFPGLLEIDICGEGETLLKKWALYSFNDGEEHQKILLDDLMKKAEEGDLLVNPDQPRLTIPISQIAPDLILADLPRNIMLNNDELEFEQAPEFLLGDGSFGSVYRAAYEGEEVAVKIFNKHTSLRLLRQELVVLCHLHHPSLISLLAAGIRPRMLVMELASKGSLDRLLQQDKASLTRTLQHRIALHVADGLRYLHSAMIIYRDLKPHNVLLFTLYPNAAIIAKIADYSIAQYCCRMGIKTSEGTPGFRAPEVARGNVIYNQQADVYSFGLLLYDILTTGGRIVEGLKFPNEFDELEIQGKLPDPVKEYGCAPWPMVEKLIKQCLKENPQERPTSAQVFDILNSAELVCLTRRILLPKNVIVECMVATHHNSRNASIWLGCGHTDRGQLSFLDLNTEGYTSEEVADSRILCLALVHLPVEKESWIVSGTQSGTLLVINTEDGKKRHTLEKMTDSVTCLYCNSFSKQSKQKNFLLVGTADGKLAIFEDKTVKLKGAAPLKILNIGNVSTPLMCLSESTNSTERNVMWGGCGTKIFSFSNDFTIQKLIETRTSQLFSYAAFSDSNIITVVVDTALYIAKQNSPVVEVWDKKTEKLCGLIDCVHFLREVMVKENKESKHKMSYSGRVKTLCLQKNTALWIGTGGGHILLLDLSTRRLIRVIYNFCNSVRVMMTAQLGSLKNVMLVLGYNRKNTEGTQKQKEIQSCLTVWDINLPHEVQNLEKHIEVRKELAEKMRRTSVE
# T1 sequence (Q9UM73 19-1620): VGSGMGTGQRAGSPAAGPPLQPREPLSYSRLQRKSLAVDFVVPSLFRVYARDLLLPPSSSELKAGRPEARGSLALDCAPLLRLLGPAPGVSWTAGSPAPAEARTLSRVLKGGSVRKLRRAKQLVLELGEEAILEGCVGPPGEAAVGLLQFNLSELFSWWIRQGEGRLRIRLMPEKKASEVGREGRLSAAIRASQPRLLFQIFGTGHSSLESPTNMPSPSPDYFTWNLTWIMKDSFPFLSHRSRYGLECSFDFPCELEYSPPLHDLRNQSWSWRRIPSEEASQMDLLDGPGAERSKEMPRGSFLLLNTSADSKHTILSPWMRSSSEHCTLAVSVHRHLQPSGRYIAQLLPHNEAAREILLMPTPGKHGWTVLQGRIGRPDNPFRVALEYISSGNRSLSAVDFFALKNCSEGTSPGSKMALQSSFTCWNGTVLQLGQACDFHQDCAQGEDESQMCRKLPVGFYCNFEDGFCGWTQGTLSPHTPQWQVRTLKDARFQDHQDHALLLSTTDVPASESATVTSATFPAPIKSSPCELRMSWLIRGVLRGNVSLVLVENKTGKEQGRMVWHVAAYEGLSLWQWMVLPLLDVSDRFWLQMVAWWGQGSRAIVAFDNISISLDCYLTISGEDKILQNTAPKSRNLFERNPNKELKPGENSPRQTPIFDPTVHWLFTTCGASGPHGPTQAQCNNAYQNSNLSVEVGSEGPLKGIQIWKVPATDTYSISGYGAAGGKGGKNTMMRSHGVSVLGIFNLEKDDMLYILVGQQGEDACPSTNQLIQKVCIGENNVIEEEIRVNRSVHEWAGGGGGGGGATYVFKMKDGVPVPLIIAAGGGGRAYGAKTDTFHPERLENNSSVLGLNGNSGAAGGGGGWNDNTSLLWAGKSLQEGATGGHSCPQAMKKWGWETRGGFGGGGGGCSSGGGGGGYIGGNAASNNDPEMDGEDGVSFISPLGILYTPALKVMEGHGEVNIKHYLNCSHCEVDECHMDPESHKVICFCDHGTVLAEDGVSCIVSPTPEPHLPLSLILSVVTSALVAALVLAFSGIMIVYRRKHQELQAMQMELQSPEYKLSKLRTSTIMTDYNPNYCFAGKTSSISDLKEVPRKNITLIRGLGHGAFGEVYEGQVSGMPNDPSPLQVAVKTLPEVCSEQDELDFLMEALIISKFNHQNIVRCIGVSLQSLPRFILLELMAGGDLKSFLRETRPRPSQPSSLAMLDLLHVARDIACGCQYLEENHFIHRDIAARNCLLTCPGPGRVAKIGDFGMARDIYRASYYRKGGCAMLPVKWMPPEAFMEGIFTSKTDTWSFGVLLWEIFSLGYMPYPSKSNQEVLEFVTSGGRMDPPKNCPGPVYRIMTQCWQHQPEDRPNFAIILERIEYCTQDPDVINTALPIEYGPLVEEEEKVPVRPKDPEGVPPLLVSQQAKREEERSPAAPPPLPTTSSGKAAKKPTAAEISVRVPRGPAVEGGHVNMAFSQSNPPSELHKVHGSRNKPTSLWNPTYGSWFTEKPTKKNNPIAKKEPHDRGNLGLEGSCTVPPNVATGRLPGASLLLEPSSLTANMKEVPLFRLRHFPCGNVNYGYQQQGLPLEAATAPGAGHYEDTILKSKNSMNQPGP
# Sequence of LRRK2 (Q5S007 whole entry): as the sequence (Q5S007 whole entry G2019S) above, with S2019G counted along it
# T4 sequence (P49761 whole entry): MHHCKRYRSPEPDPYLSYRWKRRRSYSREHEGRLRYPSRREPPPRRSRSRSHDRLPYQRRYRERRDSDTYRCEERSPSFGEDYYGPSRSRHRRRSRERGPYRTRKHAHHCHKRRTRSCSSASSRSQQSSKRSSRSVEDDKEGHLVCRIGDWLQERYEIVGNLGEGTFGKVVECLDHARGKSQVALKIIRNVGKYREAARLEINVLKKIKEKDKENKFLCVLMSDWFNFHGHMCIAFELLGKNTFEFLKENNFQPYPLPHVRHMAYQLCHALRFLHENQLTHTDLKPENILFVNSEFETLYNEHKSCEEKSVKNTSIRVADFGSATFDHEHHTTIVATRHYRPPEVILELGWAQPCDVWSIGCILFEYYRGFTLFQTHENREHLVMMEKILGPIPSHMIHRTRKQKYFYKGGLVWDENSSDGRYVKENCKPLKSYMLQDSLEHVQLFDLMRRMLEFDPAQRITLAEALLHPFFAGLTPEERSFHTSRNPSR
# T3 sequence (P49759 whole entry): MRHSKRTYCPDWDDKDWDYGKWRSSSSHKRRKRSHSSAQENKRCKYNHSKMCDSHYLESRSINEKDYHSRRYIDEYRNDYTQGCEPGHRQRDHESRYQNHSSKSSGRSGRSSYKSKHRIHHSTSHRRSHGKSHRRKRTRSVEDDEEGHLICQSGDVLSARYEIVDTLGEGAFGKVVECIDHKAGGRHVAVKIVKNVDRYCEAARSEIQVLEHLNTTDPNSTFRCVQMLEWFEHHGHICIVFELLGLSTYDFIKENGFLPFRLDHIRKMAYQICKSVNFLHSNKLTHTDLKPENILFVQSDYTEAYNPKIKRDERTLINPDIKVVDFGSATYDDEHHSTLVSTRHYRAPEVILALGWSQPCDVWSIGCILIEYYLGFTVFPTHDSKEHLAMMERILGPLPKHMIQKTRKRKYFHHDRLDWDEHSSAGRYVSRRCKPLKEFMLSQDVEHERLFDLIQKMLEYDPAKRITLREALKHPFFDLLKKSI
Structure (SMILES),remaining binding at 1 µM [1],remaining binding at 1 µM [2],remaining binding at 1 µM [3],remaining binding at 1 µM [4],remaining binding at 1 µM [5],remaining binding at 1 µM [6],remaining binding at 1 µM [7],remaining binding at 1 µM [8],remaining binding at 1 µM [9],inhibition at 0.5 µM [10],IC50 [11]
"CCNc1cc(Nc2ccc(S(=O)(=O)N3CCC(N4CCOCC4)CC3)c3c2OCCO3)nc2[nH]cc(C(F)(F)F)c12 [Example 96, N^4-ethyl-N^6-(8-((4-morpholonopiperidin-1-yl)sulfonyl)-2,3-dihydrobenzo [b] [1,4]dioxin-5-yl)-3-(trifluoromethyl)-1H-pyrrolo[2,3-b]pyridine-4,6-diamine]",9.5%,28%,9.7%,27%,0.3%,3%,1.9%,4.5%,2.7%,,
"CCNc1cc(Nc2ccc(C(=O)N3CCC(N4C[C@@H]5C[C@H]4CO5)CC3)c3c2OCC3)nc2[nH]cc(C(F)(F)F)c12 [Example 105, (4-((1S,4S)-2-oxa-5-azabicyclo[2.2.1]heptan-5-yl)piperidin-1-yl)(7-((4-(ethylamino)-3-(trifluoromethyl)-1H-pyrrolo[2,3-b]pyridin-6-yl)amino)-2,3-dihydrobenzofuran-4-yl)methanone]",0.3%,2.3%,1.5%,5.9%,5.5%,0.9%,0%,0%,2.6%,33.2%,
"CNc1cc(Nc2ccc(C(=O)N3CCC(N4CCOCC4)CC3)c3c2OCCO3)nc2[nH]cc(C(F)(F)F)c12 [Example 160, (8-((4-(methylamino)-3-(trifluoromethyl)-1H-pyrrolo[2,3-b]pyridin-6-yl)amino)-2,3-dihydrobenzo [b] [1,4]dioxin-5-yl)(4-morpholinopiperidin-1-yl)methanone]",0.65%,1.3%,13%,13%,0.55%,0%,0.35%,2.8%,3.4%,,
"CCCNc1cc(Nc2ccc(C(=O)N3CCC(N4CCOCC4)CC3)c3c2OCCO3)nc2[nH]cc(C(F)(F)F)c12 [Example 162, (4-morpholinopiperidin-1-yl)(8-((4-(propylamino)-3-(trifluoromethyl)-1H-pyrrolo[2,3-b]pyridin-6-yl)amino)-2,3-dihydrobenzo[b] [1,4]dioxin-5-yl)methanone]",0.65%,1.3%,13%,13%,0.55%,0%,0.35%,2.8%,3.4%,,
"CNc1cc(Nc2ccc(S(=O)(=O)N3CCC(N4CCOCC4)CC3)cc2OC)nc2[nH]cc(C(F)(F)F)c12 [Example 184, N^6-(2-methoxy-4-((4-morpholinopiperidin-1-yl)sulfonyl)phenyl)-N^4-methyl-3-(trifluoromethyl)-1H-pyrrolo[2,3-b]pyridine-4,6-diamine]",15%,23%,3.4%,7.8%,0.45%,13%,3.2%,3.8%,0.35%,,< 100 nM
"CNc1cc(Nc2ccc(P3(=O)CCN(C4CC4)CC3)cc2OC)nc2[nH]cc(C(F)(F)F)c12 [Example 205, 1-cyclopropyl-4-(3-methoxy-4-((4-(methylamino)-3-(trifluoromethyl)-1H-pyrrolo[2,3-b]pyridin-6-yl)amino)phenyl)-1,4-azaphosphinane 4-oxide]",1.4%,1.6%,18%,37%,0.25%,2.5%,17%,18%,5.5%,,
"CCNc1cc(Nc2ccc(P3(=O)CCN(C4CC4)CC3)cc2OC)nc2[nH]cc(C(F)(F)F)c12 [Example 206, 1-cyclopropyl-4-(4-((4-(ethylamino)-3-(trifluoromethyl)-1H-pyrrolo[2,3-b]pyridin-6-yl)amino)-3-methoxyphenyl)-1,4-azaphosphinane 4-oxide]",9%,23%,8.5%,91%,1.2%,0%,28%,23%,0.65%,,
"COCCNc1cc(Nc2ccc(P3(=O)CCN(C4CC4)CC3)cc2OC)nc2[nH]cc(C(F)(F)F)c12 [Example 207, 1-cyclopropyl-4-(3-methoxy-4-((4-((2-methoxyethyl)amino)-3-(trifluoromethyl)-1H-pyrrolo[2,3-b]pyridin-6-yl)amino)phenyl)-1,4-azaphosphinane 4-oxide]",5.9%,10%,5.6%,66%,0.55%,0%,16%,20%,4.8%,41.7%,
"CNc1cc(Nc2ccc(C(=O)N3CC[C@H](N4CCOCC4)C3)c3c2OCC3)nc2[nH]cc(C(F)(F)F)c12 [Example 217, (S)-(7-((4-(methylamino)-3-(trifluoromethyl)-1H-pyrrolo[2,3-b]pyridin-6-yl)amino)-2,3-dihydrobenzofuran-4-yl)(3-morpholinopyrrolidin-1-yl)methanone]",3.8%,18%,2.4%,19%,8.2%,1.4%,1%,1%,3%,,
"O=C(c1ccc(Nc2cc(C3CC3)c3c(C(F)(F)F)c[nH]c3n2)c2c1OCCO2)N1CCC(N2CCOCC2)CC1 [Example 221, (8-((4-cyclopropyl-3-(trifluoromethyl)-1H-pyrrolo[2,3-b]pyridin-6-yl)amino)-2,3-dihydrobenzo [b] [1,4]dioxin-5-yl)(4-morpholinopiperidin-1-yl)methanone]",17%,28%,7.5%,60%,0.25%,0.45%,5.5%,14%,4.5%,,< 100 nM
